The text below walks through data of patent publication US12213980B2, “Application of PDE9A inhibitor in preparation of products having elevated Treg content, drugs for preventing and treating inflammatory bowel disease and health care products” (ZHEJIANG UNIVERSITY, priority 2018, dated 2025).

Data set [1] relates to Treg cells in mesenteric lymph node, spleen and colon. The experiment in a line: Activation test of Treg in DSS induction model (flow cytometry). Type of data set: in vivo, C57 female mice. The method, then: The colon was digested with collagenase, and the mesenteric lymph nodes and spleen tissues were ground and sieved through 100 mesh to prepare single cell suspensions. The cell density was adjusted to 10^5 cell/100 μl, and the Treg amount was determined for each sample.
Related studies have shown that T cells, especially Treg cells, play a role in the protection of DSS inflammatory bowel disease model. In order to study the role of Treg in the DSS colitis model, three mesenteric lymph nodes, spleen and colon were evaluated based on trial 4, respectively.

In data set [2] the test system is TNF-α, IL-17, IL-6, IL-12/IL-23 in colon tissue. The protocol:
(§1) C57 female mice were selected and weighed about 20 g. All mice were randomly divided into control group (control group), model group (DSS group), sulfasalazine group (AS group) and low dose group (PF3 group). The middle dose group (PF10 group) and the high dose group (PF30 group), a total of 6 groups, 10 mice in each group.
(§2) The control group was treated with deionized water and the remaining 5 groups were fed with 3% DSS solution.
(§3) During the period, the sulfasalazine group was intragastrically administered at a dose of 0.5 g/kg, and the PF-04447943 low-dose group, the middle-dose group, and the high-dose daily gavage were administered at a dose of 3 mg/kg, 10 mg/kg, and 30 mg/kg, respectively. The body weight, water bottle weight and the record were weighed daily. On the 8th day, the mice were sacrificed by deep anesthesia, and the colon, mesenteric lymph nodes, spleen and anus were taken. The length of the colon was measured and the colon was divided into three sections. The anal part specimens were fixed in formalin and the remaining specimens were stored frozen at −80° C. Isolating the mononuclear cells of colon, mesenteric lymph node and spleen, then staining separately, the distribution of DC cells and Treg cells in colon, mesenteric lymph nodes and spleen were determined by flow cytometry. IL-6, IL-12, TNF-α, IL-17 etc were measured by ELISA. SOD activity and MDA amount in colon tissue were measured, and the effect of PDE9A inhibitor PF-04447943 on mouse model was analyzed.
After intestinal tissue homogenization, TNF-α, IL-17, IL-6, IL-12/IL-23 in colon tissue were determined by ELISA kit.

In data set [3] the test system is DC cells in colon and mesenteric lymph nodes. Nature of the data set: Activation test of intestinal mucosa DC in DSS induced model (flow cytometry). The class given is in vivo, C57 female mice. The method, then:
as §1, §2, §3
The colon was digested with collagenase, and the mesenteric lymph nodes were ground and sieved through 100 mesh to prepare single cell suspensions. The cell density was adjusted to […], and the DC cell amount was determined for each sample.
FIG. 5 is a control plot of total DC and mature DC in colon, mesenteric lymphatic cleansing in DSS model mice.

Data set [4] has as its system DSS mice. Nature of the data set: DSS-induced mouse model, overall comparison with sulfasalazine. Type of data set: in vivo, C57 female mice. The conditions noted are these: high-dose PF-04447943 group (30 mg/kg) vs sulfasalazine at conventional dose (0.5 g/kg).
The test system of data set [5] is SOD activity and MDA amount in colon tissue. The protocol:
as §1, §2, §3
After the intestinal tissue homogenization, SOD activity and MDA amount in colon tissue were determined by SOD and MDA assay kits.

Data set [6] deals with colonic mucin secretion in DSS model mice. The experiment in a line: Intestinal mucin secretion test in DSS-induced model. Type of data set: in vivo, C57 female mice. From the text:
FIG. 3 is a control map of colonic mucin secretion in DSS model mice. It can be obtained from FIG. 3. The DSS group lost epithelial integrity, crypt structure, and goblet cell, company with immune cell infiltration, Smooth muscle cell hypertrophy and reduced secretory glycoprotein when compared with the control group.

Data set [7] deals with DSS modeled mice. Nature of the data set: DSS induced model weight and colon length test. Type of data set: in vivo, C57 female mice.
For data set [8] the following is noted: cited from earlier work.
The mark [9] stands for this setting: high dose group (30 mg/kg) vs DSS group and control group.
Setting [10] is: high, medium and low dose groups vs DSS group.
[11] abbreviates: high, medium and low dose groups vs control and DSS groups.
The mark [12] stands for this setting: high dose group (30 mg/kg) vs DSS group.

Read-outs that look alike come from different tables or passages of the source.

For the molecule `C[C@@H]1CN(Cc2ncccn2)C[C@H]1c1nc2c(cnn2C2CCOCC2)c(=O)[nH]1` [PF-04447943], in data set [1] (conclusion, dose not stated), the “DSS-inhibited Treg activation” value is recorded as “significantly enhanced” and the “differentiation of CD4+Foxp3+ Treg cells” value is “significantly induced an increase”. Further, in data set [1] (setting [9]), the “CD4+FOXP3+ Treg cells in colon” value is “significantly higher than that of the DSS group and the control group”; the “CD4+FOXP3+ Treg cells in mesenteric lymph nodes” value is “significantly higher than that of the DSS group and the control group”; the “CD4+FOXP3+ Treg cells in spleen” value is “significantly higher than that of the DSS group and the control group”. In addition, in data set [1] (setting [10]), the “CD4+CD25+ Treg cells in colon” value is on record as “significantly higher in the colon than in the DSS group”. Moreover, in data set [1] (setting [11]), the “CD4+CD25+ Treg cells in mesenteric lymph nodes” value is reported as “significantly lower” and the “CD4+CD25+ Treg cells in spleen” value was “significantly lower”. Also, the “DSS-induced inflammatory factors secreted by the intestinal mucosa” value in data set [2] (conclusion, dose not stated) is recorded as “significantly inhibits”. Also, in data set [2] (setting [12]), the “IL-6 level in colon tissue” value is “significantly lower than those in the DSS group”, the “IL-12/IL-23 level in colon tissue” value was “statistically significant compared with the DSS group”, the “IL-17 level in colon tissue” value was “statistically significant compared with the DSS group” and the “TNF-α level in colon tissue” value was “statistically significant compared with the DSS group”. The “IL-6 level in colon tissue” value in data set [2] (middle dose group (10 mg/kg) vs DSS group) is “significantly lower than those in the DSS group”. The “migration of DC cells from the colon to the mesenteric lymph nodes and DC maturation” value in data set [3] (conclusion, dose not stated) is reported as “can inhibit”. Moreover, in data set [3] (setting [10]), the “activated DC cells in mesenteric lymph node (MLN)” value is “significantly lower than the DSS group”. In addition, the “activated DC (mDC) cells in colon” value in data set [3] (low, medium and high dose groups (3, 10, 30 mg/kg) vs DSS group) was “significantly lower than the DSS group”. Besides, the “total DC cells in mesenteric lymph node (MLN)” value in data set [3] (low, medium and high groups (3, 10, 30 mg/kg) vs DSS group) is “significantly lower than the DSS group”. The “efficacy in IL-6 secretion, SOD activity, MDA amount, activation of DC and regulation of Treg” value in data set [4] is recorded as “superior to the conventional drug sulfasalazine at conventional dose”. Further, the “DSS-induced intestinal oxidative stress damage” value in data set [5] (conclusion, dose not stated) is “significantly inhibit”. Besides, in data set [5] (drug group vs DSS group), the “MDA amount in colon tissue” value is “lower than that of the DSS group”. Besides, in data set [5] (setting [12]), the “MDA amount in colon tissue” value is listed as “statistically different from the DSS group” and the “SOD activity in colon tissue” value was “improved compared with the DSS group”. Further, the “destruction of intestinal mucosal mucin secretion induced by DSS” value in data set [6] (conclusion, dose not stated) is recorded as “significantly inhibit”. Further, the “loss of epithelial integrity and crypt structure, loss of goblet cells, immune cell infiltration, smooth muscle cell hypertrophy, secretory glycoprotein reduction” value in data set [6] (low-dose, medium-dose and high-dose groups (3, 10, 30 mg/kg)) was “gradually reversed”. For the same molecule, the “protective effect on colonic epithelial cells” value in data set [6] (with increasing dose of PF-04447943 (3, 10, 30 mg/kg)) is recorded as “gradually better”. In addition, the colon length entry in data set [7] (PF30 group (30 mg/kg) vs DSS group) was “significant difference”. The “weight loss and colon shortening in the DSS-induced model” value in data set [7] (conclusion, dose not stated) was “inhibited the weight loss and colon shortening”.
In the case of `O=C(O)c1cc(/N=N/c2ccc(S(=O)(=O)Nc3ccccn3)cc2)ccc1O` [sulfasalazine], the “activated DC cells in colon” value in data set [3] (sulfasalazine group 0.5 g/kg, compared with PF-04447943 dose groups) is recorded as “lower than the high dose group”.
As for “vedolizumab: α4β7 integrin antibody approved by the FDA in 2014 for moderate to severe UC and CD”, the “patients with adverse reactions” value in data set [8] (CD patients) is on record as 37%; in data set [8] (UC patients) it was 29%. Besides, in data set [8] (patients treated with vedolizumab), the clinical improvement result was “significant Clinical improvement”.
